Reference: patent US11186588B2 (AYUMI PHARMACEUTICAL CORPORATION, priority 2017, dated 2021)
One block for each compound: values may come before it.

Assays:
[1] = target: Recombinant BRD4 (44-168) protein (Homo sapiens (Human), UniProt O60885); experiment: BRD4-H4KAc4 binding assay (amplified luminescence proximity homogeneous assay, AlphaScreen); details: 10 uM
Method in brief: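 His/FLAG-tagged BRD4 (44-168) and biotinylated tetra-acetylated H4 peptide, each added as 250 nM solutions, incubated with compound 60 min at room temperature in the dark, then AlphaScreen beads 60 min. Emission 520-620 nm at 680 nm excitation, duplicates; % inhibition from blank- and DMSO-corrected signal.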

[2] = Pharmacokinetics test in rats (oral administration); assay type: in vivo, LEW/CrlCrlj rats
Procedure: In order to evaluate the transition of plasma concentration of the present compound after oral administration, pharmacokinetics was evaluated in rats. The specific method is described below.
Appropriate amounts of Example 71 and various salts thereof were weighed, triturated with an agate mortar, and suspended or dissolved in 1% methyl cellulose solution to 2 mg/mL (as a converted quantity of Example 71 considering the correction of purify).
LEW/CrlCrlj rats (male, purchased form Charles River Laboratories Japan, Inc.) were weighted, a random number based on the measured body weight was used to avoid difference in average body weight among groups, and the rats were divided into groups, wherein each groups contained 4 rats. The rats were manually held in hands and forced orally administered each administration solution comprising the compound at a dose of 5 mL/kg into stomach using a feeding needle. At 0.5, 1, 3, 6 and 24 hours after the administration of each administration solution comprising the compound, the rats were manually held in hands, and blood was collected from the jugular vein or subclavian vein using a heparin-treated injection syringe. The obtained blood was centrifuged at 1,500 G for 10 minutes, and plasma was collected as an actual sample. In addition, plasma was collected from rats before the administration of the compound in the same manner, which was used as blank plasma. The collected actual samples and blank plasma were stored in a freezer set at −70° C. until the measurement of the compound concentration. To 20 μL of each actual sample were added 20 μL of acetonitrile (available from Kishida Chemical Co., Ltd., Cat No. 140-00401), 100 μL of MilliQ water and 20 μL of the internal standard solution to prepare an analytical sample. In addition, to 20 μL of blank plasma were added 20 μL or 40 μL of acetonitrile (available from Kishida Chemical Co., Ltd., Cat No. 140-00401) and 100 μL of MilliQ water (a blank sample or a zero sample, respectively). A standard sample for a calibration curve was prepared by mixing 20 μL of blank plasma, 20 μL of the standard solution for a calibration curve in each concentration, 100 μL of MilliQ water and 20 μL of the internal standard solution. Whole amount of the prepared each sample was applied to a diatomaceous earth column for liquid-liquid extraction (available from Biotage, Cat No. 820-0200), tert-butyl methyl ether (available from Kanto Chemical Co., Inc., Cat No. 04418-5B) was added and eluted by natural dropping, and the obtained eluate was concentrated to dryness under a nitrogen stream. The residue was dissolved in the re-dissolved solution and 10 μL of each sample was injected into the LC/MS/MS apparatus.
LC/MS/MS analysis was carried out under the following conditions. Analytical column: Hydrosphere C18, 3 μm, 2.0 mm I.D.×50 mm (from YMC, Cat No. HS12S03-0502WT)
Flow rate: 0.3 mL/min. Column temperature: 50° C. Peak area calculation, peak area ratio calculation, preparation of calibration and quantification used in calculating the concentration for the LC/MS/MS analysis were carried out by Analyst ver.1.6.2 (available from AB Sciex). In addition, by using the obtained concentration measurement results, these were analyzed by Non-compartmental model of a pharmacokinetics analysis program WinNonlin ver.6.1 (Pharsight Corporation), and the pharmacokinetics parameter was calculated.

[3] = male, LEW/CrlCrlj, rat, plasma, 10 mg/kg, oral 2 mg/mL solution at 5 mL/kg, mean n = 4

- inhibition at 10 µM [1]: 100%
Compound: Cc1sc2c(c1C)C(c1ccc(Cl)cc1)=NN(Cc1ccccn1)c1nnc(C)n1-2 [Example 5, 4-(4-chlorophenyl)-2,3,9-trimethyl-6-(pyridin-2-ylmethyl)-6H-thieno[2,3-e][1,2,4]triazolo[3,4-c][1,2,4]triazepine]

- inhibition at 10 µM [1]: 100%
Compound: Cc1sc2c(c1C)C(c1ccc(Cl)cc1)=NN(Cc1cccnc1Cl)c1nnc(C)n1-2 [Example 38, 4-(4-chlorophenyl)-6-((2-chloropyridin-3-yl)methyl)-2,3,9-trimethyl-6H-thieno[2,3-e][1,2,4]triazolo[3,4-c][1,2,4]triazepine]

- inhibition at 10 µM [1]: 97.8%
Compound: Cc1sc2c(c1C)C(c1ccccc1)=NN(Cc1ccccn1)c1nnc(C)n1-2 [Example 31, 2,3,9-trimethyl-4-phenyl-6-(pyridin-2-ylmethyl)-6H-thieno[2,3-e][1,2,4]triazolo[3,4-c][1,2,4]triazepine]

- inhibition at 10 µM [1]: 100%
Compound: Cc1sc2c(c1C)C(c1ccc(Cl)cc1)=NN(Cc1cccnc1F)c1nnc(C)n1-2 [Example 25, 4-(4-chlorophenyl)-6-((2-fluoropyridin-3-yl)methyl)-2,3,9-trimethyl-6H-thieno[2,3-e][1,2,4]triazolo[3,4-c][1,2,4]triazepine]

- inhibition at 10 µM [1]: 100%
- concentration at 0.5 h ([2]; male, LEW/CrlCrlj, rat, 10 mg/kg, plasma, 0.5 h after oral 2 mg/mL solution at 5 mL/kg, mean n = 4, read-out: Concentration (ng/mL), sampling time 0.5 h): 22.1 ng/mL
- concentration at 1 h ([2]; male, LEW/CrlCrlj, rat, 10 mg/kg, plasma, 1 h after oral 2 mg/mL solution at 5 mL/kg, mean n = 4, read-out: Concentration (ng/mL), sampling time 1 h): 14.8 ng/mL
- concentration at 3 h ([2]; male, LEW/CrlCrlj, rat, 10 mg/kg, plasma, 3 h after oral 2 mg/mL solution at 5 mL/kg, mean n = 4, read-out: Concentration (ng/mL), sampling time 3 h): 4.23 ng/mL
- concentration at 6 h ([2]; male, LEW/CrlCrlj, rat, 10 mg/kg, plasma, 6 h after oral 2 mg/mL solution at 5 mL/kg, mean n = 4, read-out: Concentration (ng/mL), sampling time 6 h): 1.46 ng/mL
- AUC(0-inf) [2, 3]: 0.0618 µg·h/mL
- AUC(0-t) [2, 3]: 0.0423 µg·h/mL
- half-life [2, 3]: 1.31 h
- Cmax ([2]; male, LEW/CrlCrlj, rat, plasma, 10 mg/kg, oral 2 mg/mL solution at 5 mL/kg, mean n = 4, read-out: Cmax): 0.0224 µg/mL
- MRT ([2]; male, LEW/CrlCrlj, rat, plasma, 10 mg/kg, oral 2 mg/mL solution at 5 mL/kg, mean n = 4, read-out: MRT): 1.82 h
- Tmax ([2]; male, LEW/CrlCrlj, rat, plasma, 10 mg/kg, oral 2 mg/mL solution at 5 mL/kg, mean n = 4, read-out: Tmax): 0.75 h
- Kel ([2]; oral 2 mg/mL solution at 5 mL/kg, mean n = 4): 0.55 h⁻¹
Compound: CC(=O)Nc1ccc(C2=NN(Cc3cccnc3)c3nnc(C)n3-c3sc(C)c(C)c32)cc1 [Example 71, N-(4-(2,3,9-trimethyl-6-(pyridin-3-ylmethyl)-6H-thieno[2,3-e][1,2,4]triazolo[3,4-c][1,2,4]triazepin-4-yl)phenyl)acetamide]
